The values below come from article doi:10.1101/2021.03.09.434688v1 (biorxiv, 2021).

The assay deals with T1, PsnB (Plesiocystis pacifica, UniProt A6G4D7).
T1 sequence (A6G4D7 1-314): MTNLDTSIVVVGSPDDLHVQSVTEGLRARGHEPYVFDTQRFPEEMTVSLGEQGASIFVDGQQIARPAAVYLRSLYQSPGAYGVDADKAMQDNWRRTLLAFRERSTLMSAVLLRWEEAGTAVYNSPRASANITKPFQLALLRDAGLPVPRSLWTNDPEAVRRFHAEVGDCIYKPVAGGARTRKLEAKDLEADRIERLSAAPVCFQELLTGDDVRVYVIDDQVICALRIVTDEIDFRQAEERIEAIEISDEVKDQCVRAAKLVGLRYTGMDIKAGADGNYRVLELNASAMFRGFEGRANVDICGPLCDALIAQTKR
T1 sequence (A6GH40 14-38 partner): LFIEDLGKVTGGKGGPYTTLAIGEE
Kind of assay: X-ray crystal structure of the complex. Format: binding. The conditions noted are these: complex with minimal precursor PsnA2_14-38 and Mg; nucleotide 5 mM; ATP site.

`Nc1ncnc2c1ncn2[C@@H]1O[C@H](COP(=O)(O)OP(=O)(O)O)[C@@H](O)[C@H]1O` [ADP]: the “X-ray crystal structure of the complex” value is on record as “For PsnB-MP-ADP (7DRM)”.
The result for `Nc1ncnc2c1ncn2[C@@H]1O[C@H](COP(=O)(O)OP(=O)(O)NP(=O)(O)O)[C@@H](O)[C@H]1O` [AMPPNP] reads “PsnB-MP-AMPPNP (7DRN)”.
